The source made the active and inactive calls. No rule for the calls is given here.
Molecular target: Bcl-2-related protein A1 (Homo sapiens) (UniProt Q16548)
Experiment: inhibitors of Bim binding to Bfl-1, dose response, biochemical, multiplexed, bead-based flow cytometry (AID 1320); also: test concentration not given here
Conditions: Bim peptide-Bfl-1 binding, fluorescence

Chain of Bcl-2-related protein A1 (Homo sapiens) (Q16548 whole entry, looked up): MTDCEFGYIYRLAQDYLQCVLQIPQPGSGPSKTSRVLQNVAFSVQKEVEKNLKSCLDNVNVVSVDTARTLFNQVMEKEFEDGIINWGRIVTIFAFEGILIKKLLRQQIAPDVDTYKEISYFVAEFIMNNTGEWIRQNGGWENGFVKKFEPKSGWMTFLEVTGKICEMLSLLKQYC

SMILES | percent span (inhibition)
CCN(CC)c1ccc(NC(=O)c2ccc(=O)[nH]c2)cc1S(=O)(=O)Nc1ccccc1OC | inactive
O=C(CSc1nc2ccsc2c(=O)n1Cc1ccc(C(=O)O)cc1)NCC1CCCO1 (stereo not given) | inactive
O=C(O)C1=C[C@H](C2CC2)C[C@H](OCCCCO)O1 | inactive
Cc1ccc(C(=O)C(C(=O)/C=C/c2ccccc2)=C2SCCCS2)cc1 | inactive
CN=c1scc(C)n1/N=C/c1ccc(O)c(O)c1O | inactive
O=C(Nc1ccccc1N1CCOCC1)c1cccs1 | inactive
CCCCOc1ccc(Cc2c(Cl)nc(SC)nc2N2CCOCC2)cc1 | inactive
Cc1ccc(C(NC(=O)C(C)C)c2cc([N+](=O)[O-])c3cccnc3c2O)cc1 (stereo not given) | inactive
Cc1cc(N/C(=N/S(=O)(=O)c2cc(F)ccc2F)c2ccccc2)n(-c2ccccc2)n1 | inactive
COC(=O)/C(=C/c1ccc(F)cc1)NC(C)=O | inactive
Cc1ccc(-c2ccc(CCC(=O)O)n2NC(=O)c2cccs2)cc1 | inactive
Cc1nonc1NC(=O)CSc1nnc(-c2ccoc2C)n1C | inactive
CCOC(=O)C1=C(CP(=O)(c2ccccc2)c2ccccc2)NC(=O)NC1c1ccc(OC)cc1 (stereo not given) | inactive
N/C(=N\OC(=O)CCC1CCCC1)c1ccncc1 | inactive
Cc1ccc2nc3c(cc(C(N)=S)c(=N)n3CCCOC(C)C)c(=O)n2c1 | inactive
Cc1ccc(C(=O)CCC(=O)Nc2ccc(Cl)c(S(=O)(=O)Nc3cccc(Cl)c3)c2)cc1 | inactive
Cc1cc(C)c2nc3nc(C)c(C)cc3c(N)c2c1 | inactive
O=C(C[n+]1ccc(-c2nnc3n2CCC3)cc1)c1ccc(Cl)c(Cl)c1 | inactive
CC1=C2C(CCS2(=O)=O)CC2(C1)C(=O)OC(C)(C)OC2=O (stereo not given) | inactive
COc1ccc(CC(=O)Nc2ccc3nc(C)sc3c2)cc1OC | inactive

SMILES | percent span (inhibition)
Cc1nnc(NCc2n[nH]c(=O)c3ccccc23)c2ccccc12 | inactive
OCCC1CN(Cc2ccc3ncccc3c2)CCN1Cc1ccccc1 (stereo not given) | inactive
S=C(Nc1ccc(N2CCOCC2)cc1)Nc1ccc2nc(-c3ccco3)c(-c3ccco3)nc2c1 | inactive
NC(=O)c1c(NC(=O)C2CCCO2)sc2c1CCCCC2 (stereo not given) | inactive
COc1ccc(OC)c(NC(=O)CCCN2C(=S)NC(C)(C)CC2C)c1 (stereo not given) | inactive
O=C1Nc2ccc([N+](=O)[O-])cc2OC1CCN1CCN(Cc2ccc3c(c2)OCO3)CC1 (stereo not given) | inactive
COC(=O)C1C2c3ccccc3OC1(C)N=c1s/c(=C/c3cnn(C)c3C)c(=O)n12 (stereo not given) | inactive
O=C(Nc1cccc(-c2ccc3nncn3n2)c1)c1ccco1 | inactive
CCOc1ccccc1/C=N/NC(=O)CNC(=O)COc1ccccc1 | inactive
CCOC(=O)c1snc(-c2ccc(F)cc2)c1N | inactive
Cc1ccc(NC(=O)c2cc(S(=O)(=O)NCCC3=CCCCC3)ccc2F)cc1F | inactive
Cc1ccc(C)c(NC(=O)C(=O)NCc2ccccn2)c1 | inactive
Cc1ccc(C)c(Oc2ncnc(N)c2[N+](=O)[O-])c1 | inactive
CCCCc1ccc(NC(=S)NCc2ccc(OC)cc2)cc1 | inactive
Cc1onc(-c2ccccc2Cl)c1C(=O)Nc1nn[nH]n1 | inactive
CCOC(=O)c1ccc(Nc2nc(C(=O)OCC)nc3ccccc23)cc1 | inactive
COC(=O)CSc1nccc(-c2cccs2)n1 | inactive
CC(NCc1ccc(-c2ccccc2)cc1)C(O)c1ccccc1 (stereo not given) | inactive
Cc1cc(C)nc(/N=c2/ssnc2Cl)c1 | inactive
CCn1cc(C=C2C(=O)c3ccccc3C2=O)c2ccccc21 | inactive

From PubChem BioAssay AID1320 (NMMLSC, 2008)
